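48-hour exposure; five concentrations; linearly interpolated endpoints. At the TGI there is no net growth.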
Tests used:
Assay in all cases: growth of human tumour cells (NCI), 48 h
MOLT-4 leukemia = system: MOLT-4 leukemia
SR leukemia = system: SR leukemia
MDA-N = system: MDA-N
U251 CNS = system: U251 CNS
M14 melanoma = system: M14 melanoma
K-562 leukemia = system: K-562 leukemia
MDA-MB-231 breast = system: MDA-MB-231 breast
MCF7 breast = system: MCF7 breast
SK-MEL-2 melanoma = system: SK-MEL-2 melanoma
HL-60(TB) leukemia = system: HL-60(TB) leukemia
SK-MEL-28 melanoma = system: SK-MEL-28 melanoma
SNB-75 CNS = system: SNB-75 CNS
T-47D breast = system: T-47D breast
CCRF-CEM leukemia = system: CCRF-CEM leukemia
IGROV1 ovarian = system: IGROV1 ovarian
NCI-H226 lung = system: NCI-H226 lung
UO-31 renal = system: UO-31 renal
KM12 colon = system: KM12 colon
EKVX NSCLC = system: EKVX NSCLC
786-0 renal = system: 786-0 renal
RXF 393 renal = system: RXF 393 renal
CAKI-1 renal = system: CAKI-1 renal
SW-620 colon = system: SW-620 colon
TK-10 renal = system: TK-10 renal
OVCAR-5 ovarian = system: OVCAR-5 ovarian
A498 renal = system: A498 renal
LOX IMVI melanoma = system: LOX IMVI melanoma
HOP-62 NSCLC = system: HOP-62 NSCLC
HCC-2998 colon = system: HCC-2998 colon
UACC-257 melanoma = system: UACC-257 melanoma
OVCAR-4 ovarian = system: OVCAR-4 ovarian
HT29 colon = system: HT29 colon
UACC-62 melanoma = system: UACC-62 melanoma
PC-3 prostate = system: PC-3 prostate
NCI-H460 lung = system: NCI-H460 lung
DU-145 prostate = system: DU-145 prostate
BT-549 breast = system: BT-549 breast
HCT-15 colon = system: HCT-15 colon
SN12C renal = system: SN12C renal
SF-295 CNS = system: SF-295 CNS
A549 NSCLC = system: A549 NSCLC
ACHN renal = system: ACHN renal
HS 578T breast = system: HS 578T breast
SK-OV-3 ovarian = system: SK-OV-3 ovarian
NCI/ADR-RES ovarian = system: NCI/ADR-RES ovarian
SF-268 CNS = system: SF-268 CNS
HOP-92 NSCLC = system: HOP-92 NSCLC
OVCAR-3 ovarian = system: OVCAR-3 ovarian
OVCAR-8 ovarian = system: OVCAR-8 ovarian
MDA-MB-435 = system: MDA-MB-435
NCI-H23 lung = system: NCI-H23 lung
RPMI-8226 leukemia = system: RPMI-8226 leukemia
HCT-116 colon = system: HCT-116 colon
COLO 205 colon = system: COLO 205 colon
SNB-19 CNS = system: SNB-19 CNS
SF-539 CNS = system: SF-539 CNS
SK-MEL-5 melanoma = system: SK-MEL-5 melanoma
NCI-H522 lung = system: NCI-H522 lung

In the case of N#Cc1c(Cl)c2ccccc2n2c1nc1ccccc12, the TGI (MOLT-4 leukemia) is reported as 75.9 µM, the TGI (SR leukemia) is reported as 77.7 µM and the TGI (MDA-N) is reported as over 100 µM. It also gave a TGI (U251 CNS) of over 100 µM, a TGI (M14 melanoma) of 69.8 µM and a TGI (K-562 leukemia) of over 100 µM. For the same compound, the TGI (MDA-MB-231 breast) was 74 µM, the TGI (MCF7 breast) was over 100 µM and the TGI (SK-MEL-2 melanoma) was over 100 µM. It also gave a TGI (HL-60(TB) leukemia) of 31 µM, a TGI (SK-MEL-28 melanoma) of over 100 µM and a TGI (SNB-75 CNS) of over 100 µM. The TGI (T-47D breast) was 46.8 µM, the TGI (CCRF-CEM leukemia) was 47.2 µM and the TGI (IGROV1 ovarian) was 38.7 µM. For the same compound, the TGI (NCI-H226 lung) was 59 µM, the TGI (UO-31 renal) was 38.2 µM and the TGI (KM12 colon) was over 100 µM. The TGI (EKVX NSCLC) was 70 µM, the TGI (786-0 renal) was 51 µM and the TGI (RXF 393 renal) was 49.3 µM. It also gave a TGI (CAKI-1 renal) of 51.4 µM, a TGI (SW-620 colon) of over 100 µM and a TGI (TK-10 renal) of 36.5 µM. The TGI (OVCAR-5 ovarian) was over 100 µM, the TGI (A498 renal) was over 100 µM and the TGI (LOX IMVI melanoma) was 34.6 µM. It also gave a TGI (HOP-62 NSCLC) of over 100 µM, a TGI (HCC-2998 colon) of 40.1 µM and a TGI (UACC-257 melanoma) of over 100 µM. It also gave a TGI (OVCAR-4 ovarian) of 84 µM, a TGI (HT29 colon) of 35.7 µM and a TGI (UACC-62 melanoma) of over 100 µM. The TGI (PC-3 prostate) was over 100 µM, the TGI (NCI-H460 lung) was over 100 µM and the TGI (DU-145 prostate) was 80.4 µM. The TGI (BT-549 breast) was over 100 µM, the TGI (HCT-15 colon) was 33.1 µM and the TGI (SN12C renal) was 67 µM. It also gave a TGI (SF-295 CNS) of over 100 µM, a TGI (A549 NSCLC) of over 100 µM and a TGI (ACHN renal) of 32.6 µM. It also gave a TGI (HS 578T breast) of 63.1 µM, a TGI (SK-OV-3 ovarian) of over 100 µM and a TGI (NCI/ADR-RES ovarian) of 65.6 µM. The TGI (SF-268 CNS) was 83.7 µM, the TGI (HOP-92 NSCLC) was 48.2 µM and the TGI (OVCAR-3 ovarian) was over 100 µM. It also gave a TGI (OVCAR-8 ovarian) of 48.3 µM, a TGI (MDA-MB-435) of over 100 µM and a TGI (NCI-H23 lung) of 53.8 µM. It also gave a TGI (RPMI-8226 leukemia) of 72.7 µM, a TGI (HCT-116 colon) of 33.5 µM and a TGI (COLO 205 colon) of 41.9 µM. It also gave a TGI (SNB-19 CNS) of over 100 µM and a TGI (SF-539 CNS) of 42.8 µM.

O=[N+]([O-])c1ccc2[nH]ncc2c1Cl gave a TGI (SK-MEL-5 melanoma) of 27 µM, a TGI (MOLT-4 leukemia) of 72.6 µM and a TGI (SR leukemia) of over 100 µM. For the same compound, the TGI (MDA-N) was 48.1 µM, the TGI (U251 CNS) was over 100 µM and the TGI (K-562 leukemia) was over 100 µM. It also gave a TGI (MDA-MB-231 breast) of 35 µM, a TGI (MCF7 breast) of over 100 µM and a TGI (SK-MEL-2 melanoma) of 40.4 µM. It also gave a TGI (HL-60(TB) leukemia) of over 100 µM, a TGI (SK-MEL-28 melanoma) of over 100 µM and a TGI (SNB-75 CNS) of over 100 µM. For the same compound, the TGI (T-47D breast) was 44.4 µM, the TGI (CCRF-CEM leukemia) was over 100 µM and the TGI (IGROV1 ovarian) was 39.1 µM. For the same compound, the TGI (NCI-H226 lung) was over 100 µM, the TGI (KM12 colon) was over 100 µM and the TGI (EKVX NSCLC) was 53.8 µM. For the same compound, the TGI (786-0 renal) was over 100 µM, the TGI (RXF 393 renal) was over 100 µM and the TGI (NCI-H522 lung) was 16.5 µM. For the same compound, the TGI (SW-620 colon) was over 100 µM, the TGI (TK-10 renal) was over 100 µM and the TGI (OVCAR-5 ovarian) was 62.5 µM. It also gave a TGI (A498 renal) of over 100 µM, a TGI (LOX IMVI melanoma) of 38.9 µM and a TGI (HOP-62 NSCLC) of over 100 µM. For the same compound, the TGI (HCC-2998 colon) was over 100 µM, the TGI (UACC-257 melanoma) was over 100 µM and the TGI (OVCAR-4 ovarian) was 85.5 µM. For the same compound, the TGI (HT29 colon) was 77.4 µM, the TGI (UACC-62 melanoma) was over 100 µM and the TGI (PC-3 prostate) was 90.7 µM. The TGI (NCI-H460 lung) was over 100 µM, the TGI (DU-145 prostate) was 32.2 µM and the TGI (BT-549 breast) was 89.7 µM. It also gave a TGI (HCT-15 colon) of over 100 µM, a TGI (SN12C renal) of over 100 µM and a TGI (SF-295 CNS) of over 100 µM. The TGI (A549 NSCLC) was over 100 µM, the TGI (ACHN renal) was 51.5 µM and the TGI (HS 578T breast) was 59.3 µM. The TGI (SK-OV-3 ovarian) was over 100 µM, the TGI (NCI/ADR-RES ovarian) was over 100 µM and the TGI (HOP-92 NSCLC) was over 100 µM. It also gave a TGI (OVCAR-3 ovarian) of over 100 µM, a TGI (OVCAR-8 ovarian) of over 100 µM and a TGI (MDA-MB-435) of over 100 µM. The TGI (RPMI-8226 leukemia) was 61.2 µM, the TGI (HCT-116 colon) was 80.4 µM and the TGI (COLO 205 colon) was 28.2 µM. It also gave a TGI (SNB-19 CNS) of over 100 µM and a TGI (SF-539 CNS) of over 100 µM.

Source: PubChem BioAssay (NCI)
